Usually IC50 stands for the concentration that gives 50% inhibition.

In patent US10660877B2 (BRISTOL-MYERS SQUIBB COMPANY, priority 2016, dated 2020) one finds IC50 data, which are given here for 25 molecules.

The structures appear in SMILES notation. Where two headings read alike, the source gives them in different places.

One test concerns the target human TLR7 (Homo sapiens (Human), UniProt Q9NYK1). Nature of the test: TLR7 inhibition reporter assay (HEK-Blue cells, SEAP reporter, gardiquimod stimulation). The format is cell-based. For orientation: Reporter assays use an easily measured gene product as a stand-in for the process of interest.
The target in a further test is human TLR8 (Homo sapiens (Human), UniProt Q9NR97). Nature of the test: TLR8 inhibition reporter assay (HEK-Blue cells, SEAP reporter, R848 stimulation).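 Further: compounds tested from 0.05 nM to 50 µM, 22 h at 37 °C, SEAP measured with HEK-Blue Detection, inhibition relative to agonist plus DMSO versus a known inhibitor.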
For a further test, the target named is human TLR9 (Homo sapiens (Human), UniProt Q9NR96). Nature of the test: TLR9 inhibition reporter assay (HEK-Blue cells, SEAP reporter, ODN2006 stimulation).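 Further: compounds tested over 0.05 nM to 50 µM, 22 h incubation, inhibition taken as SEAP signal drop from agonist plus DMSO wells toward a known inhibitor control.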
[1] abbreviates: HEK-Blue cells overexpressing human TLR7, gardiquimod 7.5 μM.
[2] abbreviates: read-out: TLR8 IC50, HEK-Blue cells overexpressing human TLR8, R848 15.9 μM.
Setting [3] is: read-out: TLR9 IC50, HEK-Blue cells overexpressing human TLR9, ODN2006 5 nM.
The mark [4] stands for this setting: TLR8 IC50, HEK-Blue cells overexpressing human TLR8, R848 15.9 μM.
The mark [5] stands for this setting: TLR9 IC50, HEK-Blue cells overexpressing human TLR9, ODN2006 5 nM.

Sequence of human TLR9 (Q9NR96 26-1032): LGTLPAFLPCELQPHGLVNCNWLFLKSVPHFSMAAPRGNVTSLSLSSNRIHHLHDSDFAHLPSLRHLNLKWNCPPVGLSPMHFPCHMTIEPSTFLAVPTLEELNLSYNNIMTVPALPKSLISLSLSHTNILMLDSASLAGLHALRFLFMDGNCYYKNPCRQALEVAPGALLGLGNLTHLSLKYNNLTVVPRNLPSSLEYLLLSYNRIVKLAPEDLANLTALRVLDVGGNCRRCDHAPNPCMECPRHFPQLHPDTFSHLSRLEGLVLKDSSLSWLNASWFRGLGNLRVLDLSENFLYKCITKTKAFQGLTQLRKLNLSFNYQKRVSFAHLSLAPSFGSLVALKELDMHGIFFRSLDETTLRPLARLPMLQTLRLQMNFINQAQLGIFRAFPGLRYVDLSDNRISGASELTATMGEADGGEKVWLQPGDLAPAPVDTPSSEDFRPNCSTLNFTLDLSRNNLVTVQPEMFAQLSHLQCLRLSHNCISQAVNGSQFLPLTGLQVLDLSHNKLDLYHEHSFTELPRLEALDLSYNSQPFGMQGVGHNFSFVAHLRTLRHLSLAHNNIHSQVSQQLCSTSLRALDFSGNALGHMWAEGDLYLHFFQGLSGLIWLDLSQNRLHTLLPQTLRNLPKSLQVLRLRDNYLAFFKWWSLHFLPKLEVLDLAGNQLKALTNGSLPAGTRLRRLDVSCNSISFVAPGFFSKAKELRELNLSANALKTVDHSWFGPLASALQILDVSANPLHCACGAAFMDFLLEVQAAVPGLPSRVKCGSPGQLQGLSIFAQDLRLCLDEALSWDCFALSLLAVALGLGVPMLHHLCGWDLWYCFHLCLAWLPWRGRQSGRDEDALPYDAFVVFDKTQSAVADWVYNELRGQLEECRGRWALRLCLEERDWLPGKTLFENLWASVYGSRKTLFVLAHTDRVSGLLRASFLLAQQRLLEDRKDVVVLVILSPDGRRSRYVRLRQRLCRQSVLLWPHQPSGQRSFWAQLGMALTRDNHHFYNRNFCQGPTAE
Sequence of human TLR8 (Q9NR97 27-1041): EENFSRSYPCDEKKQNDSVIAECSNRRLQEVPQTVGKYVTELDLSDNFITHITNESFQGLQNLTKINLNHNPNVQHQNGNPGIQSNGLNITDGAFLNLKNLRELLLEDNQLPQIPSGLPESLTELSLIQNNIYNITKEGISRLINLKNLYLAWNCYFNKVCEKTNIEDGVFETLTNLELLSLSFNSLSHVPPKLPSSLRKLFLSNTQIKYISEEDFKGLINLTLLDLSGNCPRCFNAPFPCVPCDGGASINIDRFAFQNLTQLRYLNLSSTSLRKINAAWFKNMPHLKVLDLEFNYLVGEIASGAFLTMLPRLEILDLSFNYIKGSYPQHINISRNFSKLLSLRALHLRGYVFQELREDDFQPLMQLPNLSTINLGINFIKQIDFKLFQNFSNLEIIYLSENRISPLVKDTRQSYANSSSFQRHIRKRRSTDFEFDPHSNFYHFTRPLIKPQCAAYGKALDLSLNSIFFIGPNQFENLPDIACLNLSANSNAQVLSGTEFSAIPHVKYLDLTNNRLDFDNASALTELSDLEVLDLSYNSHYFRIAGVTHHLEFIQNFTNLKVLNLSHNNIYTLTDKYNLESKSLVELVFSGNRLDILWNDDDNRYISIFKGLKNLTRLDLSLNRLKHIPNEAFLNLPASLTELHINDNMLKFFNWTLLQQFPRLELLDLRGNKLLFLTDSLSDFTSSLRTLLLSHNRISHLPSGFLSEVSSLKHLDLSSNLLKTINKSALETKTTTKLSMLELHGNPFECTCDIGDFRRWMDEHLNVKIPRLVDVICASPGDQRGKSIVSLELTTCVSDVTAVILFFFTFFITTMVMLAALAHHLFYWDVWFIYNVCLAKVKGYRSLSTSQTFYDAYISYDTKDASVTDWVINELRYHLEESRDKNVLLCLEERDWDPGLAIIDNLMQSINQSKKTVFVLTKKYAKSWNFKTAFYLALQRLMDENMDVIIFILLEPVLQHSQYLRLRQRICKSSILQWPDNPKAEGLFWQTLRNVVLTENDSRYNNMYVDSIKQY
Sequence of human TLR7 (Q9NYK1 27-1049): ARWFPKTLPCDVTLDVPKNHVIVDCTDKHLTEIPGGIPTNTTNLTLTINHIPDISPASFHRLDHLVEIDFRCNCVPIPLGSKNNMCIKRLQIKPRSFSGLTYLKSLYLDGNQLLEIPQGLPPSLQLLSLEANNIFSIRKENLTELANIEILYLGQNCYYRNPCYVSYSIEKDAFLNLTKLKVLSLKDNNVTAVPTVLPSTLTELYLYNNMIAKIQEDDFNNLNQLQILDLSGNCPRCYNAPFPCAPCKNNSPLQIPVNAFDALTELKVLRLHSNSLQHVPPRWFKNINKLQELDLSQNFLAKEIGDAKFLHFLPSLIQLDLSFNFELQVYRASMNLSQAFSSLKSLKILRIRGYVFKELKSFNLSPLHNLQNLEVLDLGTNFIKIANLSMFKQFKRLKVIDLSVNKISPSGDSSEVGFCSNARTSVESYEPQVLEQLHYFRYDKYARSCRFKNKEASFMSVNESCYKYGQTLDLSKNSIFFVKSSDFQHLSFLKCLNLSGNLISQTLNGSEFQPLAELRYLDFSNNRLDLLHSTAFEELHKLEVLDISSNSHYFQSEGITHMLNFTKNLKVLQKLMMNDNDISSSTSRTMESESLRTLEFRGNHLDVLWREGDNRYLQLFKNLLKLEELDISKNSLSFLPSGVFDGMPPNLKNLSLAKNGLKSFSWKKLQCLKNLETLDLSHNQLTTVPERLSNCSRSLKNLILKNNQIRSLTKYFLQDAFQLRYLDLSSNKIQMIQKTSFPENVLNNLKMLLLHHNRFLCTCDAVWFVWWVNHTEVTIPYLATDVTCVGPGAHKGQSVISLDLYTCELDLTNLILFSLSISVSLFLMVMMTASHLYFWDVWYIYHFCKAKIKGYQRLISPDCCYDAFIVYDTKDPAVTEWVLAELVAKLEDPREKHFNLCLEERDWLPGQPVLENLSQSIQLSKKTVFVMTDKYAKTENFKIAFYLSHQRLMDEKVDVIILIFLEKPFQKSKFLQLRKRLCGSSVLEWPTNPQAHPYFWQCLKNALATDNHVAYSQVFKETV
Experimental for human TLR8: TLR7/8/9 Inhibition Reporter Assays
Briefly, cells are seeded into Greiner 384 well plates (15000 cells per well for TLR7, 20,000 for TLR8 and 25,000 for TLR9) and then treated with test compounds in DMSO to yield a final dose response concentration range of 0.05 nM-50 μM. […] After a 22 hour incubation at 37° C., 5% CO2, SEAP levels are determined with the addition of HEK-Blue™ Detection reagent (Invivogen), a cell culture medium that allows for detection of SEAP, according to manufacturer's specifications. The percent inhibition is determined as the % reduction in the HEK-Blue signal present in wells treated with agonist plus DMSO alone compared to wells treated with a known inhibitor.

With `Cc1cc(-c2[nH]c3ccc(C4CCN(C(=O)CN5CC6(COC6)C5)CC4)cc3c2C(C)C)cc(C)n1` [Example 364, 1-(4-(2-(2,6-dimethylpyridin-4-yl)-3-isopropyl-1H-indol-5-yl)piperidin-1-yl)-2-(2-oxa-6-azaspiro[3.3]heptan-6-yl)ethan-1-one], the 50% inhibitory concentration (IC50) amounted to 4.4 nM at human TLR7 (setting [1]), 13.4 nM on human TLR8 (setting [2]) and 584 nM at human TLR9 (setting [3]).

Consider `CCc1c(-c2ccnc(C)c2)[nH]c2ccc(C3CCN(C(=O)[C@@H]4CCCN4)CC3)cc12` [Example 629], for which the IC50 worked out at 60.4 nM on human TLR7 (setting [1]), 18.7 nM against human TLR8 (setting [4]) and 482 nM against human TLR9 (setting [5]).

As to `Cc1cc(-c2[nH]c3ccc(C4CCN(CC(=O)N(C)C)CC4)cc3c2C(C)C)c(Cl)c(C)n1` [Example 644, 2-(4-(2-(3-chloro-2,6-dimethylpyridin-4-yl)-3-isopropyl-1H-indol-5-yl)piperidin-1-yl)-N,N-dimethylacetamide], the IC50 is 7.7 nM on human TLR7 (setting [1]), 6 nM at human TLR8 (setting [2]) and 2300 nM at human TLR9 (setting [3]).

With `COCC(=O)N1CCC(c2ccc3[nH]c(-c4cc(C)nc(C)c4)c(C(C)C)c3c2)CC1` [Example 115, 1-(4-(2-(2,6-dimethylpyridin-4-yl)-3-isopropyl-1H-indol-5-yl)piperidin-1-yl)-2-methoxyethan-1-one], the IC50 against human TLR7 (setting [1]) was 5.4 nM; on human TLR8 (setting [2]) it was 131 nM; at human TLR9 (setting [3]), 44600 nM.

In the case of `Cc1cc(-c2[nH]c3ccc(C4CCN(C(=O)Cn5ccccc5=O)CC4)cc3c2C(C)C)cc(C)n1` [Example 157, 1-(2-(4-(2-(2,6-dimethylpyridin-4-yl)-3-isopropyl-1H-indol-5-yl)piperidin-1-yl)-2-oxoethyl)pyridin-2(1H)-one], the IC50 at human TLR7 (setting [1]) was found to be 16.5 nM; at human TLR8 (setting [2]), 65.7 nM; at human TLR9 (setting [3]) it was 2500 nM.

Take `CCc1c(-c2ccnc(NC(C)=O)c2)[nH]c2ccc(C3CCNCC3)cc12` [Example 68, N-(4-(3-ethyl-5-(piperidin-4-yl)-1H-indol-2-yl)pyridin-2-yl)acetamide]: the IC50 was determined as 4190 nM on human TLR7 (setting [1]), 1030 nM on human TLR8 (setting [2]) and 1030 nM on human TLR9 (setting [3]).

As to `CNC(=O)CN1CCC(c2ccc3[nH]c(-c4cc(C)nc(C5CC5)c4)c(C(C)C)c3c2)CC1` [Example 503, 2-(4-(2-(2-cyclopropyl-6-methylpyridin-4-yl)-3-isopropyl-1H-indol-5-yl)piperidin-1-yl)-N-methylacetamide], the IC50 on human TLR7 (setting [1]) is 10.8 nM; at human TLR8 (setting [2]), 24.1 nM; at human TLR9 (setting [3]) it was 1230 nM.

For `Cc1cc(-c2[nH]c3ccc(C4CCN(CC(=O)N5CCCC5C)CC4)cc3c2C(C)C)cc(C)n1` (stereo not drawn) [Example 259, 2-(4-(2-(2,6-dimethylpyridin-4-yl)-3-isopropyl-1H-indol-5-yl)piperidin-1-yl)-1-(2-methylpyrrolidin-1-yl)ethan-1-one], the IC50 was 4.5 nM against human TLR7 (setting [1]), 12.2 nM against human TLR8 (setting [4]) and 483 nM against human TLR9 (setting [5]).

On to `CO[C@@H]1C[C@H](CO)N(CC(=O)N2CCC(c3ccc4[nH]c(-c5cc(C)nc(C)c5)c(C(C)C)c4c3)CC2)C1` [Example 395, 1-(4-(2-(2,6-dimethylpyridin-4-yl)-3-isopropyl-1H-indol-5-yl)piperidin-1-yl)-2-((2R,4R)-2-(hydroxymethyl)-4-methoxypyrrolidin-1-yl)ethan-1-one], for which the values for the IC50 against human TLR7 (setting [1]), at human TLR8 (setting [2]) and at human TLR9 (setting [3]) were 9.7 nM, 41.1 nM and 995 nM, respectively.

Regarding `Cc1cc(-c2[nH]c3ccc(C4CCNCC4)cc3c2C(C)C)cc(N2CCN(C)CC2)n1` [Example 480, 3-isopropyl-2-(2-methyl-6-(4-methylpiperazin-1-yl)pyridin-4-yl)-5-(piperidin-4-yl)-1H-indole], the concentration for half-maximal inhibition (IC50) was found to be 2880 nM at human TLR7 (setting [1]), 7060 nM at human TLR8 (setting [2]) and 707 nM on human TLR9 (setting [3]).

Regarding `Cc1cc(-c2[nH]c3ccc(C4CCN(C(=O)C5(C)CC5)CC4)cc3c2C(C)C)ccn1` [Example 610, (4-(3-isopropyl-2-(2-methylpyridin-4-yl)-1H-indol-5-yl)piperidin-1-yl)(1-methylcyclopropyl)methanone], the IC50 against human TLR7 (setting [1]) worked out at 48.6 nM; on human TLR8 (setting [2]), 163 nM; at human TLR9 (setting [3]), 47300 nM.

As for `Cc1cc(-c2[nH]c3ccc(C4CCN(C(=O)CN(C)C(C)(C)C)CC4)cc3c2C(C)C)cc(C)n1` [Example 359, 2-(tert-butyl (methyl)amino)-1-(4-(2-(2,6-dimethylpyridin-4-yl)-3-isopropyl-1H-indol-5-yl)piperidin-1-yl)ethan-1-one], the 50% inhibitory concentration (IC50) against human TLR7 (setting [1]) turned out to be 7.1 nM; at human TLR8 (setting [2]) it was 11.7 nM; at human TLR9 (setting [3]) it was 826 nM.

Regarding `Cc1cc(-c2[nH]c3ccc(C4CCN(C5CCOCC5)CC4)cc3c2C(C)C)c(C)cn1` [Example 714, 2-(2,5-dimethylpyridin-4-yl)-3-isopropyl-5-(1-(tetrahydro-2H-pyran-4-yl)piperidin-4-yl)-1H-indole], the IC50 amounted to 31.4 nM on human TLR7 (setting [1]), 2.7 nM at human TLR8 (setting [2]) and 2210 nM at human TLR9 (setting [3]).

For `Cc1cc(-c2[nH]c3ccc(C4CCNCC4)cc3c2C2CC2)cc(C)n1` [Example 93, 3-cyclopropyl-2-(2,6-dimethylpyridin-4-yl)-5-(piperidin-4-yl)-1H-indole], the IC50 at human TLR7 (setting [1]) worked out at 3.3 nM; on human TLR8 (setting [2]) it was 9.2 nM; at human TLR9 (setting [3]), 122 nM.

In the case of `Cc1cc(-c2[nH]c3ccc(C4CCN(C(=O)[C@@H]5C[C@H](F)CN5)CC4)cc3c2C(C)C)cc(C)n1` [Example 196, (4-(2-(2,6-dimethylpyridin-4-yl)-3-isopropyl-1H-indol-5-yl)piperidin-1-yl)((2S,4S)-4-fluoropyrrolidin-2-yl)methanone], the figures for the IC50 on human TLR7 (setting [1]), at human TLR8 (setting [2]) and on human TLR9 (setting [3]) were 1.2 nM, 16.2 nM and 195 nM, respectively.

As for `Cc1cc(-c2[nH]c3ccc(C4CCN(C(=O)C(F)F)CC4)cc3c2C(C)C)cc(C)n1` [Example 105, 1-(4-(2-(2,6-dimethylpyridin-4-yl)-3-isopropyl-1H-indol-5-yl)piperidin-1-yl)-2,2-difluoroethan-1-one], the results for the IC50 on human TLR7 (setting [1]), on human TLR8 (setting [4]) and on human TLR9 (setting [5]) were 3.3 nM, 21.8 nM and 12000 nM, respectively.

Take `Cc1cc(-c2[nH]c3ccc(C4CCNC(=O)C4)cc3c2C(C)C)ccn1` (stereo not drawn) [Example 490, 4-(3-isopropyl-2-(2-methylpyridin-4-yl)-1H-indol-5-yl)piperidin-2-one]: the IC50 is 186 nM at human TLR7 (setting [1]), 67.4 nM on human TLR8 (setting [2]) and greater than 50000 nM on human TLR9 (setting [3]).

Take `Cc1cc(-c2[nH]c3ccc(C4CCN(C(=O)CN5CCCC(O)C5)CC4)cc3c2C(C)C)cc(C)n1` (stereo not drawn) [Example 383, 1-(4-(2-(2,6-dimethylpyridin-4-yl)-3-isopropyl-1H-indol-5-yl)piperidin-1-yl)-2-(3-hydroxypiperidin-1-yl)ethan-1-one]: the IC50 on human TLR7 (setting [1]) was 1.7 nM; at human TLR8 (setting [2]), 11.1 nM; on human TLR9 (setting [3]) it was 572 nM.

Consider `Cc1cc(-c2[nH]c3ccc(C4CCN(CC(=O)O)CC4)cc3c2C(C)C)cc(C)n1` [Example 875, 2-(4-(2-(2,6-dimethylpyridin-4-yl)-3-isopropyl-1H-indol-5-yl)piperidin-1-yl)acetic acid], for which the IC50 at human TLR7 (HEK-Blue cells, gardiquimod 7.5 μM) is 31 nM; on human TLR8 (read-out: TLR8 IC50, HEK-Blue cells, R848 15.9 μM) it was 248 nM; on human TLR9 (read-out: TLR9 IC50, HEK-Blue cells, ODN2006 5 nM), 10100 nM.

In the case of `Cc1cc(-c2[nH]c3ccc(C4CCN(Cc5c[nH]nn5)CC4)cc3c2C(C)C)cc(C)n1` [Example 446, 5-(1-((1H-1,2,3-triazol-4-yl)methyl)piperidin-4-yl)-2-(2,6-dimethylpyridin-4-yl)-3-isopropyl-1H-indole], the figures for the IC50 against human TLR7 (setting [1]), on human TLR8 (setting [2]) and on human TLR9 (setting [3]) were 1.3 nM, 2.6 nM and 292 nM, respectively.

For the molecule `Cc1cc(-c2[nH]c3ccc(C4CCN(CC(C)C)CC4)cc3c2C(C)C)cc(C)n1` [Example 471, 2-(2,6-dimethylpyridin-4-yl)-5-(1-isobutylpiperidin-4-yl)-3-isopropyl-1H-indole], the half-inhibitory concentration (IC50) at human TLR7 (setting [1]) came out at 2.4 nM; on human TLR8 (setting [2]), 8 nM; at human TLR9 (setting [3]), 610 nM.

`Cc1cc(-c2[nH]c3ccc(C4CCN(C(=O)Cn5ccc(C6CC6)n5)CC4)cc3c2C(C)C)cc(C)n1` [Example 162, 2-(3-cyclopropyl-1H-pyrazol-1-yl)-1-(4-(2-(2,6-dimethylpyridin-4-yl)-3-isopropyl-1H-indol-5-yl)piperidin-1-yl)ethan-1-one]: the IC50 against human TLR7 (setting [1]) was found to be 18.5 nM; on human TLR8 (setting [2]) it was 129 nM; on human TLR9 (setting [3]), 16200 nM.

For `Cc1cc(-c2[nH]c3ccc(C4CCN(C(=O)CN(C)CCO)CC4)cc3c2C(C)C)cc(C)n1` [Example 420, 1-(4-(2-(2,6-dimethylpyridin-4-yl)-3-isopropyl-1H-indol-5-yl)piperidin-1-yl)-2-((2-hydroxyethyl)(methyl)amino)ethan-1-one], the figures for the IC50 at human TLR7 (setting [1]), on human TLR8 (setting [2]) and at human TLR9 (setting [3]) were 1.5 nM, 9.9 nM and 632 nM, respectively.

On to `CCC(CC)C(=O)N1CCC(c2ccc3[nH]c(-c4cc(C)nc(C)c4)c(C(C)C)c3c2)CC1` [Example 104, 1-(4-(2-(2,6-dimethylpyridin-4-yl)-3-isopropyl-1H-indol-5-yl)piperidin-1-yl)-2-ethylbutan-1-one], for which the values for the IC50 against human TLR7 (setting [1]), at human TLR8 (setting [2]) and on human TLR9 (setting [3]) were 14.9 nM, 249 nM and 12000 nM, respectively.

`CC(C)c1c(-c2ccnc(C(=O)Nc3nccs3)c2)[nH]c2ccc(C3CCNCC3)cc12` [Example 477, 4-(3-isopropyl-5-(piperidin-4-yl)-1H-indol-2-yl)-N-(thiazol-2-yl) picolinamide]: the half-maximal inhibitory concentration (IC50) at human TLR7 (setting [1]) turned out to be 3080 nM; on human TLR8 (setting [2]), 1110 nM; at human TLR9 (setting [3]) it was 2190 nM.
